Experimental findings from patent US20130039951A1, “Process Of Preparing A Stabilized And Solubilized Formulation Of Sirolimus Derivatives” (DONG-A PHARM. CO., LTD., priority 2011, published 2013) are described below.

A short description of data set [1]: Elution test of tablets in distilled water, paddle method, HPLC. The class given is physicochemical. The following applies: 900 mL distilled water, 37.5° C., 10 mg everolimus, after 1 hour. The method, then:
The granules of the examples were mixed with pharmaceutical excipients as set forth in Table 1 and then tableted to give a tablet. A direct compressing method was used to prepare a tablet comprising 10 mg of a sirolimus derivative with a hardness of 13 to 15 Kp. However, the formulation prepared from Comparative Example 1 had difficulties in being mixed with the pharmaceutical excipients of Table 1 and also met with an obstacle in a tableting process so that it was subjected to an additional milling process and controlled to have a granularity of 200 to 300 μm before being mixed with the excipients and tableted.
The tablets as obtained were evaluated for their elution property. 900 mL of an elution liquid (distilled water) was put into an elution tester and the granules as obtained in Examples 1 to 6 were taken in an amount corresponding to a dosage of 10 mg of everolimus and subjected to an elution test at 37.5° C. with 50 cycles per a minute by using a paddle method for 2 hours. For each […] taken in accordance with a predetermined schedule, the concentration of everolimus in the elution liquid was quantified by using a high performance liquid chromatography. […]

Data set [2] in a line: Stability: storage in glass vial at 80° C. for 60 hours, drug content by HPLC. The class given is physicochemical. The method, then:
For Examples 1 to 6 and Comparative Examples 2 and 3, their stability was evaluated and the results were compared. Each of the samples was placed in a glass vial and stored at 80° C. for 60 hours, and then the content of the drug was quantified by using a high performance liquid chromatography.

Regarding `CO[C@H]1C[C@@H]2CC[C@@H](C)[C@@](O)(O2)C(=O)C(=O)N2CCCC[C@H]2C(=O)O[C@H]([C@H](C)C[C@@H]2CC[C@@H](OCCO)[C@H](OC)C2)CC(=O)[C@H](C)/C=C(\C)[C@@H](O)[C@@H](OC)C(=O)[C@H](C)C[C@H](C)/C=C/C=C/C=C/1C` [Comparative Example 2, 40-O hydroxyethyl rapamycin], the “elution rate of everolimus” value in data set [1] is “about 37%”. Also, the “content after being left for 60 hours” value in data set [2] (80° C., 60 hours) came out at 23.5%. Besides, the “Content, initial” value in data set [2] (before storage) was 100.4 wt %. Moreover, the “Content, After 60 hours” value in data set [2] (stored at 80° C. for 60 hours in glass vial) was 23.5 wt %.
